Legend:
F70C (NDM-1 mutant) = target: T1, F70C (NDM-1 mutant) (Klebsiella pneumoniae, UniProt C7C422, F70C); assay: Specific activity against antibiotics by ultraviolet-visible spectroscopy (antibiotic hydrolysis); type: biochemical; settings: enzyme 0.001 mg/ml, 100 μM antibiotic, 50 μM ZnCl2, 20 mM Tris-HCl buffer, pH 7.0
T1 construct: made in house; host or cells: E. coli BL21 (DE3), pET-3k vector
Method: (§1) Specific activity (U/mg) of wild-type NDM-1, F70C and F70Cf against different antibiotics were measured by ultraviolet-visible spectroscopy. Enzymes (final concentration: 0.001 mg/ml) were incubated with 100 μM of different antibiotics: cefotaxime, ceftazidime, penicillin G, ampicillin and meropenem, in 500 μL buffer (50 μM ZnCl2, 20 mM Tris-HCl buffer, pH 7.0). Antibiotic hydrolysis was monitored at 264 nm (cefotaxime), 260 nm (ceftazidime), 240 nm (penicillin G), 235 nm (ampicillin) and 297 nm (meropenem). The molar extinction coefficients were used as follows: cefotaxime=−7250 M^−1 cm^−1, ceftazidime=−8660 M^−1 cm^−1, penicillin G=−560 M^−1 cm^−1, ampicillin=900 M^−1 cm^−1 and meropenem −10940 M^−1 cm^−1.

[1] = target: T2, F70Cf (fluorescein-labelled NDM-1 mutant) (Klebsiella pneumoniae, UniProt C7C422, F70C); assay: as above; type: biochemical; settings: enzyme 0.001 mg/ml, 100 μM antibiotic, 50 μM ZnCl2, 20 mM Tris-HCl buffer, pH 7.0
T2 construct: made in house; host or cells: E. coli BL21 (DE3), pET-3k vector; labelled with F5M after purification
Method: as §1

Wild-type NDM-1 = target: T3, Wild-type NDM-1 (Klebsiella pneumoniae, UniProt C7C422); assay: as above; type: biochemical; settings: enzyme 0.001 mg/ml, 100 μM antibiotic, 50 μM ZnCl2, 20 mM Tris-HCl buffer, pH 7.0
T3 construct: made in house; host or cells: E. coli BL21 (DE3), pET-3k vector
Method: as §1

F70Cf [2] = target: T4, F70Cf (Klebsiella pneumoniae, UniProt C7C422, F70C); assay: Time-course fluorescence measurements of F70Cf on a spectrofluorometer; type: binding; settings: for Fluorescence signal of F70Cf with inhibitor: F70Cf 0.13 μM, inhibitor 0, 2, 20 and 200 μM, excitation 494 nm, emission 518 nm, L-arginine 200 μM (1:1500) as control, FIGS. 7A-7E; for Initial phase of fluorescence increase (speed of binding to F70Cf): spectrophotometer, FIGS. 7A-7D; for Fluorescence signal of F70Cf with β-lactam antibiotic as a function of time: spectrofluorometer, mole ratios 1:150 and 1:1500, FIGS. 5A-5B
T4 construct: made in house; host or cells: E. coli BL21 (DE3), pET-3k vector; labelled with F5M after purification
Excerpt: To investigate fluorescence response of the proposed NDM-1 mutant to two existing β-lactam antibiotics, fluorescein-labelled NDM-1 mutant, F70Cf, was mixed with cefotaxime and cephalothin in two concentrations (in mole ratios of 1:150 and 1:1500) and compared the fluorescence intensity level of these two samples with a blank (i.e., no cefotaxime nor cephalothin, or mole ratio=1:0) under a spectrofluorometer. […] It has been shown in other previous studies (Chan et al., 2008; Tsang et al., 2011) that binding of β-lactam antibiotics to the enzyme's active site induces the […] to depart from the active site, so that the fluorescein label (F5M) becomes well exposed to external aqueous environment and/or stays away from amino acid quenchers in the active site. When the […] is hydrolyzed to the acid product, the fluorescein label (F5M) returns to the active site, thus restoring its weak fluorescence signal.
Time-course fluorescence measurements were recorded at 518 nm by exciting the F70Cf (final concentration: 0.13 μM) at 494 nm with different concentrations of the inhibitors (0, 2, 20 and 200 μM, respectively) in labelling buffer (50 μM ZnCl2, 20 mM Tris-HCl buffer, pH 7.0) in a quartz cuvette. Triplicate measurements were performed for each inhibitor. L-arginine in 200 μM was also used as a control.

F70Cf [3] = target: T4, F70Cf; assay: Fluorescence microplate reader measurements of F70Cf; type: binding; settings: for Initial increase in fluorescence signal, microplate reader: mole ratio 1:1500, FIGS. 8A-8D; for Fluorescence signal of F70Cf as a function of time, microplate reader: mole ratio of F70Cf to test substance 1:1500, FIGS. 6A-6B, 8E
Method: To investigate compatibility of F70Cf with a high-throughput screening platform, a F70Cf was initially added to a fluorescence microplate reader followed by injection of 1:1500 cefotaxime and cephalothin, respectively.
For high-throughput inhibitor screening experiments, the fluorescence signal changes were recorded by adding 10 μL of each inhibitor (final concentration: 200 μM) automatically into 250 μL of F70Cf (final concentration: 0.13 μM) in a 96-well plate containing 50 μM ZnCl2, 20 mM, pH7.0, Tris-HCl buffer, using Thermo Scientific Varioskan LUX Multimode Microplate Reader (Thermo Fisher Scientific) (n=3). The excitation and emission wavelengths were 494 and 520 nm, respectively. The injection of each inhibitor started at 0.5 min.

F70Cf [4] = target: T4, F70Cf; assay: Native ESI-MS binding study of F70Cf with inhibitors; settings: 20 mM ammonium acetate with 50 μM ZnCl2, FIGS. 9A-9F
Method: To further verify that F70Cf can bind to these non-β-lactam inhibitors non-covalently, native ESI-MS measurements were performed. […] Prior to ESI-MS analysis, protein was buffer-exchanged into 20 mM ammonium acetate with 50 μM ZnCl2 buffer with ultra-filtration devices. Equal volumes of F70Cf and inhibitors were mixed in a molar ratio of 1:20 for 10 minutes, and the mixture was directly loaded into metal-coated glass capillaries, which were subsequently mounted onto the nano-ESI source for MS analysis […].

NDM-1 = NDM-1 (Klebsiella pneumoniae, UniProt C7C422); settings: previous studies (Brem et al., 2016; Klingler et al., 2015; Ma et al., 2019); cited from earlier work

T1 sequence (C7C422 29-270 F70C): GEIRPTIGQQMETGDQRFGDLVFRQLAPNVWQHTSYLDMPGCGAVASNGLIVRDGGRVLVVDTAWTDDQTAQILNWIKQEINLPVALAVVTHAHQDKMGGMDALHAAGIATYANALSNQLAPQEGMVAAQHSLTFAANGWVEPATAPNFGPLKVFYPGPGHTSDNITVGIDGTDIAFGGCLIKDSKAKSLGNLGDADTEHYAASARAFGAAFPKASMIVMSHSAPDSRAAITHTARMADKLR
T4 sequence (C7C422 29-270 F70C): as above
T2 sequence (C7C422 29-270 F70C): as above
T3 sequence (C7C422 29-270 limits assumed): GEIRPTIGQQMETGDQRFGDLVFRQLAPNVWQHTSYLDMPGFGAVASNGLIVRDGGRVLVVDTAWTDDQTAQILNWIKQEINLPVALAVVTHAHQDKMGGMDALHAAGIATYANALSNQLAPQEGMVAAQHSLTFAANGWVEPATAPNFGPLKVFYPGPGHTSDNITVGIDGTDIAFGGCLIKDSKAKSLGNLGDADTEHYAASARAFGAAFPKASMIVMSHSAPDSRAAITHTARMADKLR

Molecule | Specific activity, F70C (F70C (NDM-1 mutant)) [U/mg] | Specific activity, F70Cf [1] [U/mg] | Specific activity, Wild-type NDM-1 (Wild-type NDM-1) [U/mg] | Fluorescence signal of F70Cf with inhibitor (F70Cf [2]) | Initial phase of fluorescence increase (speed of binding to F70Cf) (F70Cf [2]) | Initial increase in fluorescence signal, microplate reader (F70Cf [3]) | Formation of non-covalent complex with F70Cf (F70Cf [4]) | IC50 (NDM-1) [nM] | Fluorescence signal of F70Cf with β-lactam antibiotic as a function of time (F70Cf [2]) | Fluorescence signal of F70Cf as a function of time, microplate reader (F70Cf [3])
C[C@@H](O)[C@H]1C(=O)N2C(C(=O)O)=C(S[C@@H]3CN[C@H](C(=O)N(C)C)C3)[C@H](C)[C@H]12 [Meropenem, meropenem] | 5863 ± 291 | 506 ± 30 | 6834 ± 1582 |  |  |  |  |  |  | 
peptide with an amino acid sequence of GSKKPVPIIYCNRRTGKCQRM (SEQ ID NO: 9), from GL Biochem [thanatin] |  |  |  | increased with an increasing dose of the inhibitors | bind much faster to F70Cf as compared L-captopril | much faster than that of L-captopril | can form non-covalent complexes with F70Cf in a significant population | 3210 |  | 
O=C(O)CNC(=O)C(CS)Cc1ccccc1 (racemic) [DL-thiorphan] |  |  |  | increased with an increasing dose of the inhibitors | bind much faster to F70Cf as compared L-captopril | much faster than that of L-captopril | can form non-covalent complexes with F70Cf in a significant population | 1800 |  | 
CC(C)(O/N=C(\C(=O)N[C@@H]1C(=O)N2C(C(=O)[O-])=C(C[n+]3ccccc3)CS[C@H]12)c1csc(N)n1)C(=O)O [Ceftazidime, ceftazidime] | 3835 ± 216 | 308 ± 33 | 3446 ± 150 |  |  |  |  |  |  | 
CC1(C)S[C@@H]2[C@H](NC(=O)[C@H](N)c3ccccc3)C(=O)N2[C@H]1C(=O)O [Ampicillin, ampicillin] | 13880 ± 1406 | 779 ± 114 | 16349 ± 880 |  |  |  |  |  |  | 
CC1(C)S[C@@H]2[C@H](NC(=O)Cc3ccccc3)C(=O)N2[C@H]1C(=O)O [Penicillin G, penicillin G] | 60854 ± 1436 | 10720 ± 330 | 54764 ± 3013 |  |  |  |  |  |  | 
CO/N=C(\C(=O)N[C@@H]1C(=O)N2C(C(=O)O)=C(COC(C)=O)CS[C@H]12)c1csc(N)n1 [Cefotaxime, cefotaxime] | 8195 ± 1960 | 1529 ± 121 | 8166 ± 937 |  |  |  |  |  | fluorescence signals increased and then decreased gradually as a function of time | stronger fluorescence signals and then declining fluorescence signals as a function of time
CC(=O)OCC1=C(C(=O)O)N2C(=O)[C@@H](NC(=O)Cc3cccs3)[C@H]2SC1 [cephalothin] |  |  |  |  |  |  |  |  | fluorescence signals increased and then decreased gradually as a function of time | stronger fluorescence signals and then declining fluorescence signals as a function of time
N=C(N)NCCC[C@H](N)C(=O)O [L-arginine] |  |  |  | no fluorescence signal |  |  | virtually cannot form a F70Cf-L-arginine complex in a significant population |  |  | no fluorescence signals

From US20260265724A1, “BIOSENSOR COMPRISING A MODIFIED BETA-LACTAMASE AND USES THEREOF” (priority 2022, published 2026)
